Data: patent US20140112882A1, “Methods to treat pancreatic inflammation and associated lung injury through regulation of pancreatic interleukin-22 expression” (The Board of Trustees of the Leland Stanford Junior …, priority 2012, published 2014)

What was measured:
[1] = system: CDE-induced acute pancreatitis; test: CDE-diet-induced acute pancreatitis model; type: in vivo, Balb/c mice
Description: (§1) Mice including Balb/c, C57B6/J and AhR^d were purchased from Jackson laboratory and housed under pathogen-free conditions. All animal experiments were approved by Stanford University institutional animal care and use committees. Acute pancreatitis models. For caerulein-induced pancreatitis, age and sex matched mice were fasted for 12-16 hours. Mice then received 7 hourly intra-peritoneal injections of saline (control) or 50 μg/kg caerulein in saline and followed up to 12 h or indicated times. For the choline-deficient diet supplemented with DL-ethionine (CDE-diet) model of pancreatitis, young female mice (16-20 g) were fasted then fed a choline-deficient diet (Harlan Teklad) supplemented with 0.5% DL-ethionine (Sigma-Aldrich) or normal chow (control group) (Habtezion et al. (2011), Nakamichi et al., 2005).
(§2) Mice were given PBS or recombinant IL-22 (200 ng/mouse, 1 ng/μl, Miltenyi Biotech) intra-peritoneally at 24 h after onset of CDE-diet-induced acute pancreatitis. For experiments involving anti-IL-22 mAb, mice were treated with 1 μg of either anti-IL-22 or isotype control mAb (R&D Systems) at indicated times. CH-223191 (100 μg/mouse, 0.5 μg/μl, Sigma-Aldrich) was dissolved in DMSO and Biliverdin hydrochloride (35 mg/kg, Frontier Scientific) in 20 mM NaOH adjusted to pH of 7.0. CH-223191, Biliverdin hydrochloride, or vehicle control were used to treat normal mice or mice undergoing AP at indicated times.
(§3) Mice were euthanized by CO2 inhalation. Pancreata and other tissues were rapidly removed. Pancreas and lung pieces were immediately fixed in 10% formalin and embedded in paraffin. Fixed tissues were sectioned and stained with hematoxylin and eosin (H&E; performed by Histo-Tec Laboratory). The severity of pancreatitis and lung injury were scored blindly as described previously (Habtezion et al. (2011), Nakamichi et al., 2005). Other pancreas pieces were frozen in Tissue-Tek OCT compound and sectioned for fluorescence staining Immunofluorescence staining for p-STAT3 (Cell Signaling) and DAPI (nuclei) was performed according to manufacturer's guidelines. TUNEL assay was performed according to the manufacturer's instructions (ApopTag® Red In Situ Apoptosis Detection Kit, Millipore).
Blood was collected by intracardiac puncture, and serum was isolated for subsequent lipase level determination by diagnostic laboratory at Stanford University. Lung tissues were collected and MPO assay performed according to manufacture's guidelines (Biovision).
(§4) Mouse pancreata were isolated and frozen immediately in liquid nitrogen. Total tissue and primary pancreatic acinar cells, isolated as described below, were homogenized in RIPA buffer containing protein inhibitors and analyzed by western blot as described previously (Nakamichi et al., 2005; Xue et al., 2010). IL-22RA1 and cleaved caspase-3 antibodies were purchased from Abcam and Cell Signaling, respectively. Supernatant from pancreas homogenate was analyzed using ELISA kit for mouse IL-22 (Biolegend).

[2] = system: pancreatic IL-22; test: Pancreatic IL-22 production in mice (flow cytometry of pancreatic leukocytes, ELISA); type: in vivo, Balb/c mice; conditions: day 3, vs vehicle
Description: as §2
as §4, with “IL-22RA1 and cleaved caspase-3 antibodies were purchased from Abcam and Cell Signaling, respectively.” left out, “(Biolegend). […]” for “(Biolegend).”
For surface staining, cells were stained with the following antibodies (Biolegend): AF700 or FITC CD45.2, PE/Cy7-CD3, PE/Cy7-CD19, APC/Cy7-CD4, FITC-CD90, Percp/Cy5.5-CD11b, APC-Sca-1, PB-CD11c, APC/Cy7-NK1.1 and APC-NKp46. […] Flow cytometry data collection was performed on Fortessa LSRII (BD Biosciences) and analyzed using FlowJo software (Tree Star, Inc.).

[3] = system: caerulein-induced acute pancreatitis; test: Caerulein-induced acute pancreatitis in AhR non-responsive (AhR^d) mice; type: in vivo, AhR^d mice (C57BL/6 background); conditions: rIL-22 single dose 200 ng/mouse, vs vehicle control
Description: as §1
as §3, with “Fixed tissues were sectioned and stained with hematoxylin and eosin (H&E; performed by Histo-Tec Laboratory).” left out, “TUNEL assay was performed according to the manufacturer's instructions (ApopTag® Red In Situ Apoptosis Detection Kit, Millipore).” left out

[4] = system: primary pancreatic acinar cells; test: Spontaneous apoptosis of primary pancreatic acinar cells in vitro (cleaved caspase-3 western blot); type: cell-based, mice; conditions: rIL-22 for 2 h or 4 h in vitro; vs PBS
Description: as §4
(§5) Mice were sacrificed and pancreata removed carefully by trimming fat and mesentery. Dispersed pancreatic acinar cells were isolated using a collagenase digestion method described previously (Menozzi et al. 1990). Isolated primary pancreatic acinar cells were treated in vitro with either rIL-22 or vehicle control (PBS) for up to 4 hours following isolation. Pancreatic leukocytes were prepared with minor modifications of the method developed by Hawkins (Hawkins et al., 1996). Briefly, 3-4 pancreata were pooled together and minced with scissors, then washed twice with buffer A (HBSS+10% FCS). The tissue was resuspended in buffer A containing 2 mg/ml collagenase type IV (Sigma-Aldrich) and incubated in a shaker at 37° C. for 15 min. […]

[5] = system: pancreatic acinar cells; test: pSTAT3 induction in isolated primary pancreatic acinar cells (western blot); type: cell-based, Balb/c mice; conditions: 10 ng/ml for 0-30 min; 0-100 ng/ml for 15 min
Description: as §4, §5

[6] = system: RegIII genes, SAA3, β-defensin2, IL-22RA1 in pancreas; test: Quantitative PCR of pancreas mRNA 24 h after rIL-22; type: in vivo, Balb/c mice; conditions: 200 ng/mouse i.p., vs PBS
Description: Pancreatic tissue was lysed with Trizol reagent (Invitrogen) for total RNA preparation according to manufacturer's instructions. Briefly, cDNA was generated using GoScript reverse transcription system (Promega). Quantitative PCR was performed with an ABI-7900 Sequence Detection System (Applied Biosystems) using designed specific TaqMan probes and primers as follows: RegIIIβ (Forward, 5′-[…]-3′; Reverse, 5′-[…]-3′; Probe, 5′-[…]-3′); RegIIIγ (Forward, 5′-[…]-3′; Reverse, 5′-TGGGTTCATAGCCCAGTGT-3′; Probe, 5′-[…]-3′); β-defensin2 (Forward, 5′-[…]-3′; Reverse, 5′-[…]-3′; Probe, 5′-[…]-3′); SAA3 (Forward, 5′-[…]-3′; Reverse, 5′-[…]-3′; Probe, 5′-[…]-3′); IL-22RA1 (Forward, 5′-[…]-3′; Reverse, 5′-[…]-3′; Probe, 5′-[…]-3′).

[7] = system: STAT3; test: STAT3 phosphorylation in tissues after systemic rIL-22 (western blot, immunofluorescence); type: in vivo, Balb/c mice; conditions: rIL-22 200 ng/mouse systemically; 1 h; compared to other tissues
Description: as §2
Mice were euthanized by CO2 inhalation. Pancreata and other tissues were rapidly removed. […] The severity of pancreatitis and lung injury were scored blindly as described previously (Habtezion et al. (2011), Nakamichi et al., 2005). Other pancreas pieces were frozen in Tissue-Tek OCT compound and sectioned for fluorescence staining Immunofluorescence staining for p-STAT3 (Cell Signaling) and DAPI (nuclei) was performed according to manufacturer's guidelines. […]
Mouse pancreata were isolated and frozen immediately in liquid nitrogen. Total tissue and primary pancreatic acinar cells, isolated as described below, were homogenized in RIPA buffer containing protein inhibitors and analyzed by western blot as described previously (Nakamichi et al., 2005; Xue et al., 2010). […]

[8] = 200 ng/mouse 24 h after CDE feeding, 60 h, vs PBS

Molecule: Cc1ccccc1N=Nc1ccc(NC(=O)c2ccnn2C)c(C)c1 [CH-223191, 2-methyl-2H-pyrazole-3-carboxylic acid (2-methyl-4-o tolylazo-phenyl)-amide, reference compound]
- Mortality ([1]; pretreated before CDE feeding, by day 3, relative to control treated mice): increased mortality
- Severity of acute pancreatitis (serum lipase, H&E, histologic score) ([1]; pretreated daily for two days before CDE feeding, analyzed at day 2, vs vehicle): considerably more severe acute pancreatitis
- Frequency of IL-22-expressing leukocytes in the pancreas ([2]; 100 μg/mouse on two consecutive days, flow cytometry and ELISA): markedly decreased

Molecule: C=CC1=C(C)/C(=C/C2=NC(=C\c3[nH]c(/C=C4\NC(=O)C(C)=C4C=C)c(C)c3CCC(=O)O)/C(CCC(=O)O)=C2C)NC1=O [biliverdin, reference compound]
- Protection against acute pancreatitis (serum lipase, histologic assessment) ([1]; single dose 24 h after CDE-diet feeding, sacrificed at 60 h, vs vehicle): protected against acute pancreatitis
- Pancreatic IL-22 ([2]; biliverdin 35 mg/kg on day 1 and 2, ELISA and flow cytometry): significant increase

Molecule: rIL-22: recombinant IL-22 (Miltenyi Biotech), cytokine of the IL-10 family
- Blinded lung histology score ([1]; 200 ng/mouse 24 h after CDE feeding, 60 h, mean±SEM, P=0.028 vs control): 1.6±0.24
- Lung myeloperoxidase (MPO) levels [1, 8]: significantly reduced
- Morphologic evidence of lung injury [1, 8]: significantly reduced
- Pancreatitis severity, histologic examination and blinded scoring of pancreata ([1]; 200 ng/mouse 24 h after CDE feeding, 60 h, vs vehicle): less severe pancreatitis
- Serum lipase levels ([1]; 200 ng/mouse i.p. 24 h after CDE feeding, harvest at 60 h, vs PBS): significantly lower
- Pancreatic IL-22 level by ELISA after systemic administration ([1]; 60 h following CDE feeding): Effective reconstitution
- Mortality ([1]; rIL-22 24 h after CDE feeding, followed to 72 h, vs PBS): lower mortality
- Apoptosis in pancreas (TUNEL assay) ([1]; rIL-22 24 h after CDE feeding, pancreas at 60 h): significantly reduced apoptosis
- Pancreatic injury (H&E) [3]: decrease
- Serum lipase levels [3]: decrease
- Spontaneous apoptosis of acinar cells (cleaved caspase-3) [4]: delayed spontaneous apoptosis
- pSTAT3 induction in pancreatic acinar cells [5]: induced by rIL-22 in pancreatic acinar cells in a time and dose dependent manner
- IL-22RA1 mRNA expression in pancreas [6]: no significant induction
- RegIIIβ (PAP1) mRNA expression in pancreas [6]: stimulated the expression
- RegIIIγ (PAP3) mRNA expression in pancreas [6]: stimulated the expression
- SAA3 mRNA expression in pancreas [6]: no significant induction
- β-defensin2 mRNA expression in pancreas [6]: no significant induction
- STAT3 activation (p-STAT3) in the pancreas [7]: Significant STAT3 activation
